Assay results taken from patent publication US6083964A, “Optical resolution of racemic aminoalkylpyridine anticonvulsants and (+) aminoalkylpyridine enantiomers as highly potent orally effective anticonvulsant drugs and excitatory amino acid antagonists” (K and K Biosciences, Inc., priority 1999, dated 2000).

What was measured:
hippocampal kindled rats = test: Hippocampal kindled rat model, i.p.; type: in vivo; design: key to Seizure Score ± S.E.M.: Racine seizure class scale; class 5 = rearing and falling; details: for seizure score and afterdischarge duration (in words): hippocampal kindled rat
From the text: "Kindling" refers to the process whereby repeated administration of an initially subconvulsive electrical stimulus results in progressive intensification of epileptic discharge culminating in a generalized seizure. Kindling can be induced by electrical stimulation of many sites in the brain, especially in "limbic" areas, which include amygdala, hippocampus, and entorhinal cortex [Racine, R., Neurosurgery, 3, 234-252 (1978)]. Kindling is reliably produced by a one second train of 60 Hz square wave stimuli of one millisecond duration at current levels which initially produce only a slight afterdischarge (AD), but no behavioral response. Repeated stimulation, typically once daily, results in a progressive increase in AD amplitude, duration and complexity with subsequent spread to other brain areas culminating in a fully generalized motor seizure. [Racine, R. J. and Zaide, J., In "Mechanisms, the Continuing Evolution of the Limbic System Concept" (K. E. Livingston and O. Hornykiewicz, eds.), Plenum Press, pp. 457-493, 1978.
The development of kindling in the rat has been characterized by five (1 to 5) behavioral and electrographic "classes". The behavior in classes 1 (facial clonus) and 2 (head nodding) mimics that found in human complex partial seizures; the behavior in other classes would be consistent with limbic seizures evolving to generalized motor seizures. An animal is considered to be fully kindled once the enhanced sensitivity has developed, as evidenced by a class 5 seizure (rearing and falling).
The (+) AAP enantiomer, compound 1 in Table 1, was tested in the hippocampal kindled rat, by the i.p. route. […]
The (-) AAP enantiomer, compound 2 in Table 1, was also tested in the hippocampal kindled rat, by the i.p. route.

[1] = tested on: maximal electroshock seizure (MES) in mice; test: Maximal electroshock seizure (MES) test, mice, i.p.; type: in vivo, mouse (male Carworth Farms #1)
From the text: The (+) AAP enantiomers obtained by optical resolution of racemic AAPs and the resulting highly orally effective anticonvulsant compositions of this invention are useful in the treatment of convulsive disorders. […] A series of (+) AAP enantiomers and (-) AAP enantiomers of this invention has been evaluated for anticonvulsant activity by the intraperitoneal (i.p.) and by the oral (p.o.) route using two standard seizure models in the mouse and in the rat, the maximal electroshock seizure (MES) test and the subcutaneous pentylenetetrazol (Metrazole) seizure threshold (scMet) test. […] The following Table 2 presents the results of these anticonvulsant tests with respect to several (+) and (-) AAP enantiomeric compounds derived from optical resolution of racemic AAPs of the present invention. This Table 2 identifies the specific compounds tested by their chemical name and provides the test model, the route of administration, the animal species used, and the anticonvulsant activity and toxicity in terms of ED50 and TD50 values, (the median effective and toxic dose respectively), when intraperitoneally administered to mice, and when orally administered to rats. In mice, i.p.: All compounds are emulsified in 0.5% methylcellulose. The solvent has been tested for anticonvulsant and toxic effects and found to introduce no significant bias into the testing of anticonvulsant activity. The compounds are administered intraperitoneally in a volume of 0.01 ml/gm to male Carworth Farms #1 mice weighing about 20 gm. All compounds are tested at least at three dose levels (30, 100 and 300 mg/kg) at 30 minutes and 4 hours after their administration. The Maximal Electroshock Seizure Test (MES): Maximal electroshock seizures are elicited with a 60 Hz alternating current of 50 mA intensity in mice and about 150 mA intensity in rats (5-7 times that necessary to elicit minimal electroshock seizures), delivered for 0.2 sec via corneal electrodes. A drop of 0.9% saline is instilled in the eye prior to application of the electrodes in order to […]. Abolition of the hind limb tonic extension component of the seizure is defined as protection and results are expressed as number of animals protected/number of animals tested. The Subcutaneous Pentylenetetrazol (Metrazole) Seizure Threshold Test (scMet): A 0.5% solution of 85 mg/kg of pentylenetetrazol is administered subcutaneously in the posterior midline 30 minutes or 4 hours after drug administration to the animal. […] Anticonvulsant Quantification in Mice i.p.: The ED50 values are determined in the MES, scMet and rotorod ataxia test. To determine the ED50 values, five logarithmically spaced doses of the test compound are administered to animals (male Carworth Farms #1 mice) in groups of eight, to cover 0-100% protection, and the dose required to protect 50% of the animals (ED50) together with its 95% confidence limits, is determined graphically.

[2] = tested on: pentylenetetrazol (Metrazole) seizure threshold in mice; test: Timed intravenous Metrazol (PTZ) seizure threshold test in mice, i.p.; type: in vivo, mouse; details: for time to twitch: control 33.03; for PTZ dose for the clonus component: control 37.60; for time to clonus: control 39.71
From the text: A compound that is active in the MES test and prevents seizure spread, can lower seizure threshold at the same time. Such a compound would have proconvulsant activity while at the same time prevent generalized tonic seizures. […] The timed intravenous pentylenetetrazol (Metrazol) seizure threshold test in mice identifies those MES compounds with proconvulsant potential.
Mice were given the (+) and (-) enantiomers, compounds 1 and 2 in Table 1, intraperitoneally at the ED50 and TD50. At the time of maximal MES activity, an intravenous infusion of 0.5% heparinized solution of pentylenetetrazol (PT2) (0.34 ml/min) was started. The time to the appearance of the first myoclonic jerk (twitch) and the subsequent sustained clonic seizure (clonus) were the measured endpoints. Results were obtained for groups of ten treated and ten saline control mice and converted to the dose in mg/kg of PTZ necessary to produce the two endpoints.
Experiments were performed using three doses of 0, 36 and 149 mg/kg on each of 10 animals per dosage group. The time to "twitch" and the time to "clonus", the two components of the seizure elicited by the infusion of metrazol, were observed.

CC(Nc1ccc(Cl)cc1)c1ccncc1 (single isomer, unassigned; (+)) [Compound 1, (+) N-(4-Chlorophenyl)-1-(4-pyridyl)ethylamine]
Afterdischarge Duration (sec) ± S.E.M. (hippocampal kindled rats; 25 mg/kg i.p., 15 min): 76.63 ± 7.34 s | Seizure Score ± S.E.M. (hippocampal kindled rats; 25 mg/kg i.p., 15 min): 4.63 ± 0.18 | # Protected/# Tested (hippocampal kindled rats; 25 mg/kg i.p., 45 min): 2/8 | Afterdischarge Duration (sec) ± S.E.M. (hippocampal kindled rats; 25 mg/kg i.p., 45 min): 54.63 ± 12.54 s | Seizure Score ± S.E.M. (hippocampal kindled rats; 25 mg/kg i.p., 45 min): 3.75 ± 0.65 | Afterdischarge Duration (sec) ± S.E.M. (hippocampal kindled rats; 25 mg/kg i.p., 75 min): 62.75 ± 10.46 s | Seizure Score ± S.E.M. (hippocampal kindled rats; 25 mg/kg i.p., 75 min): 4.13 ± 0.48 | Afterdischarge Duration (sec) ± S.E.M. (hippocampal kindled rats; 25 mg/kg i.p., 105 min): 74.75 ± 6.44 s | Seizure Score ± S.E.M. (hippocampal kindled rats; 25 mg/kg i.p., 105 min): 5.00 ± 0.00 | Seizure Score ± S.E.M. (hippocampal kindled rats; 25 mg/kg i.p., 135 min): 4.50 ± 0.19 | Afterdischarge Duration (sec) ± S.E.M. (hippocampal kindled rats; 50 mg/kg i.p., 15 min): 56.43 ± 7.60 s | Seizure Score ± S.E.M. (hippocampal kindled rats; 50 mg/kg i.p., 15 min): 3.75 ± 0.53 | # Protected/# Tested (hippocampal kindled rats; 50 mg/kg i.p., 45 min): 2/8 | Afterdischarge Duration (sec) ± S.E.M. (hippocampal kindled rats; 50 mg/kg i.p., 45 min): 63.38 ± 10.75 s | Seizure Score ± S.E.M. (hippocampal kindled rats; 50 mg/kg i.p., 45 min): 4.13 ± 0.40 | Afterdischarge Duration (sec) ± S.E.M. (hippocampal kindled rats; 50 mg/kg i.p., 75 min): 63.14 ± 6.38 s | Seizure Score ± S.E.M. (hippocampal kindled rats; 50 mg/kg i.p., 75 min): 4.71 ± 0.18 | Afterdischarge Duration (sec) ± S.E.M. (hippocampal kindled rats; 50 mg/kg i.p., 105 min): 74.57 ± 11.58 s | Seizure Score ± S.E.M. (hippocampal kindled rats; 50 mg/kg i.p., 105 min): 4.71 ± 0.18 | Afterdischarge Duration (sec) ± S.E.M. (hippocampal kindled rats; 50 mg/kg i.p., 135 min): 61.43 ± 12.97 s | Seizure Score ± S.E.M. (hippocampal kindled rats; 50 mg/kg i.p., 135 min): 4.00 ± 0.69 | Afterdischarge Duration (sec) ± S.E.M. (hippocampal kindled rats; 50 mg/kg i.p., 165 min): 73.14 ± 9.41 s | Seizure Score ± S.E.M. (hippocampal kindled rats; 50 mg/kg i.p., 165 min): 4.57 ± 0.20 | Afterdischarge Duration (sec) ± S.E.M. (hippocampal kindled rats; 75 mg/kg i.p., 15 min): 63.29 ± 6.70 s | Seizure Score ± S.E.M. (hippocampal kindled rats; 75 mg/kg i.p., 15 min, * significantly different from control): 2.86 ± 0.59 | # Protected/# Tested (hippocampal kindled rats; 75 mg/kg i.p., 45 min): 5/7 | Afterdischarge Duration (sec) ± S.E.M. (hippocampal kindled rats; 75 mg/kg i.p., 45 min): 55.43 ± 10.39 s | Seizure Score ± S.E.M. (hippocampal kindled rats; 75 mg/kg i.p., 45 min, * significantly different from control): 2.43 ± 0.69 | Afterdischarge Duration (sec) ± S.E.M. (hippocampal kindled rats; 75 mg/kg i.p., 75 min): 74.57 ± 10.36 s | Seizure Score ± S.E.M. (hippocampal kindled rats; 75 mg/kg i.p., 75 min, * significantly different from control): 2.86 ± 0.59 | Afterdischarge Duration (sec) ± S.E.M. (hippocampal kindled rats; 75 mg/kg i.p., 105 min): 68.57 ± 5.52 s | Seizure Score ± S.E.M. (hippocampal kindled rats; 75 mg/kg i.p., 105 min, * significantly different from control): 3.86 ± 0.34 | Afterdischarge Duration (sec) ± S.E.M. (hippocampal kindled rats; 75 mg/kg i.p., 135 min): 65.00 ± 4.12 s | Seizure Score ± S.E.M. (hippocampal kindled rats; 75 mg/kg i.p., 135 min): 4.14 ± 0.26 | Afterdischarge Duration (sec) ± S.E.M. (hippocampal kindled rats; 100 mg/kg i.p., 15 min): 63.43 ± 11.37 s | Seizure Score ± S.E.M. (hippocampal kindled rats; 100 mg/kg i.p., 15 min, Table 3 value * significantly different from control): 2.00 ± 0.69 | # Protected/# Tested (hippocampal kindled rats; 100 mg/kg i.p., 45 min): 6/7 | Afterdischarge Duration (sec) ± S.E.M. (hippocampal kindled rats; 100 mg/kg i.p., 45 min): 63.29 ± 4.76 s | Seizure Score ± S.E.M. (hippocampal kindled rats; 100 mg/kg i.p., 45 min, Table 3 value * significantly different from control): 2.00 ± 0.58 | Afterdischarge Duration (sec) ± S.E.M. (hippocampal kindled rats; 100 mg/kg i.p., 75 min): 75.43 ± 9.70 s | Seizure Score ± S.E.M. (hippocampal kindled rats; 100 mg/kg i.p., 75 min, Table 3 value * significantly different from control): 2.29 ± 0.61 | Afterdischarge Duration (sec) ± S.E.M. (hippocampal kindled rats; 100 mg/kg i.p., 105 min): 71.00 ± 5.35 s | Seizure Score ± S.E.M. (hippocampal kindled rats; 100 mg/kg i.p., 105 min, Table 3 value * significantly different from control): 2.29 ± 0.71 | ED50 (hippocampal kindled rats; Rattus norvegicus, ip, 0.75 h, hippocampal kindled rats, 45 min, 95% C.I. printed b332): 54.9 mg/kg | Slope (hippocampal kindled rats; dose response, hippocampal kindled rats, i.p., 45 min): 2.93 ± 1.16 | seizure score and afterdischarge duration (in words) (hippocampal kindled rats; i.p.): significantly reduced seizure score and afterdischarge duration and the effect was dose-dependent | seizure score and afterdischarge duration (in words) (hippocampal kindled rats; i.p., listed as (+) N-(4-chlorophenyl)-1-(4-pyridyl)ethylamine): significantly reduced from that of the control | P.I. (protective index, TD50/ED50) ([1]; MES, listed as (1) (+) Enantiomer): 4.2 | ED50 ([1]; Mus musculus, ip, MES test, read-out: ED50): 35.9 mg/kg | time to twitch ([2]; 36 mg/kg dosage group): 34.91 s | PTZ dose for the clonus component ([2]; 36 mg/kg dosage group): 46.84 mg/kg | time to clonus ([2]; 36 mg/kg dosage group): 48.56 s | PTZ dose for the twitch component ([2]; 149 mg/kg dosage group, control 31.23): 33.31 mg/kg | time to twitch ([2]; 149 mg/kg dosage group): 35.01 s | PTZ dose for the clonus component ([2]; 149 mg/kg dosage group): 74.13 mg/kg | time to clonus ([2]; 149 mg/kg dosage group): 77.56 s | amount of PTZ required to produce the twitch and clonus and time to twitch and time to clonus (in words) ([2]; mice): significantly raised
